In BindingDB's records for doi:10.1021/cb300655w (Massachusetts Institute of Technology, 2013):
pIC50: −log10 of the molar value.

Assays:
[1] = target: Bone morphogenetic protein receptor type-1A (Mus musculus, UniProt P36895)
[2] = target: T1, Serine/threonine-protein kinase receptor R3 (Mus musculus, UniProt Q61288)
T1 sequence (Q61288 whole entry): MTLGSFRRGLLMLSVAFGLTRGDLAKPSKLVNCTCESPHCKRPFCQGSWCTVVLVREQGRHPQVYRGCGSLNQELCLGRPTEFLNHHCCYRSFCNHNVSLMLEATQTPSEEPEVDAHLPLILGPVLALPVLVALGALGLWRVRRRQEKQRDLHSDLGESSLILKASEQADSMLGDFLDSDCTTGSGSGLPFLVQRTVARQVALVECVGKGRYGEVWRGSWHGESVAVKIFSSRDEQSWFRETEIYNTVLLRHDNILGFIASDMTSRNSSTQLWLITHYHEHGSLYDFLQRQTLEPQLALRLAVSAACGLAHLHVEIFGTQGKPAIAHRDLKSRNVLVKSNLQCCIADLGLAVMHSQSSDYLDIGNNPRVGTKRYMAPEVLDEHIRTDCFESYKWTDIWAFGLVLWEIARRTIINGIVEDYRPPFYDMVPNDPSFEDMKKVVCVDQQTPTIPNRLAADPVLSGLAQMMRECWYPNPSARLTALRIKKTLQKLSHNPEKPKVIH

[3] = target: T2, Activin receptor type-1B (Mus musculus, UniProt Q61271)
T2 sequence (Q61271 whole entry): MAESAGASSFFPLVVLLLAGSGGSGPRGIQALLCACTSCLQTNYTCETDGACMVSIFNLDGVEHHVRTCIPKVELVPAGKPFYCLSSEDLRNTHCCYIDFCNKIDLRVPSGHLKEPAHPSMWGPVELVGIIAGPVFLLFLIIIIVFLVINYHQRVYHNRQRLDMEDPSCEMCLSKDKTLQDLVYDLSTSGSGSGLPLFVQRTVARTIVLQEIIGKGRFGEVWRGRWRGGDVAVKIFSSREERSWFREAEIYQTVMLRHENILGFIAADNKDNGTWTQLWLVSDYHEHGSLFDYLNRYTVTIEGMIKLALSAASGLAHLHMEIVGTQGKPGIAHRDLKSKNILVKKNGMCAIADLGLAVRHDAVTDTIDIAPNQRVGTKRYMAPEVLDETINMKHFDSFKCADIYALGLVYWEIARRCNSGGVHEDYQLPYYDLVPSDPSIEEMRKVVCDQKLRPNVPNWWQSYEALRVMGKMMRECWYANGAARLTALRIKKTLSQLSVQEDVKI

[4] = target: T3, TGF-beta receptor type-1 (Mus musculus, UniProt Q64729)
T3 sequence (Q64729 whole entry): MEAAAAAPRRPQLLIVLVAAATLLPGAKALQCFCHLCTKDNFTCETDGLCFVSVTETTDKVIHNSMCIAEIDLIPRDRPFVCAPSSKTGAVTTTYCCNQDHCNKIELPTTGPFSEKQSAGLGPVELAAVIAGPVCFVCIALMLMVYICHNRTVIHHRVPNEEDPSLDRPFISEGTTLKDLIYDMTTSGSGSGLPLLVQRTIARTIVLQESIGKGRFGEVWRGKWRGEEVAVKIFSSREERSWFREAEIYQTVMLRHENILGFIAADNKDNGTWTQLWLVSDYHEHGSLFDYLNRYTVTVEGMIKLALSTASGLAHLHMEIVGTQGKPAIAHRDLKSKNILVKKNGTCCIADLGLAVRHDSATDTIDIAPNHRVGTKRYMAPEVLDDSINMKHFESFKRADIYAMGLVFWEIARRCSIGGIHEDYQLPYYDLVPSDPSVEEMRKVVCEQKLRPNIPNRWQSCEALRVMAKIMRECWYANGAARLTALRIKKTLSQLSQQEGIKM

[5] = target: T4, Activin receptor type-1 (Mus musculus, UniProt P37172)
T4 sequence (P37172 whole entry): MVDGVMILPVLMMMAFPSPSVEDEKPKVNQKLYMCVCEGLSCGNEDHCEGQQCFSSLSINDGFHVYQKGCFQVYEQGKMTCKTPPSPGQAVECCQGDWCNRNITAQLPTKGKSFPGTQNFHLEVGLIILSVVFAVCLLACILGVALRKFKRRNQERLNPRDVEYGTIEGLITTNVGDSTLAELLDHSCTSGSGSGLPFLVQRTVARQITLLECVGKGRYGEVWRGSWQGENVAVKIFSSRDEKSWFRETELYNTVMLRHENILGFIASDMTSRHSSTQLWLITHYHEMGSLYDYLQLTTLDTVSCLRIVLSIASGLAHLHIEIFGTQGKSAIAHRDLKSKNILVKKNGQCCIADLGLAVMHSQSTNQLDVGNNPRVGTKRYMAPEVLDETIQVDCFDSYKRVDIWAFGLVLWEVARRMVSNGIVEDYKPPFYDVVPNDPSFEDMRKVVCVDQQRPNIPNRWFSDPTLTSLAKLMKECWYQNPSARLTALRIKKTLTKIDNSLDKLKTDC

Chain of Bone morphogenetic protein receptor type-1A (P36895 whole entry): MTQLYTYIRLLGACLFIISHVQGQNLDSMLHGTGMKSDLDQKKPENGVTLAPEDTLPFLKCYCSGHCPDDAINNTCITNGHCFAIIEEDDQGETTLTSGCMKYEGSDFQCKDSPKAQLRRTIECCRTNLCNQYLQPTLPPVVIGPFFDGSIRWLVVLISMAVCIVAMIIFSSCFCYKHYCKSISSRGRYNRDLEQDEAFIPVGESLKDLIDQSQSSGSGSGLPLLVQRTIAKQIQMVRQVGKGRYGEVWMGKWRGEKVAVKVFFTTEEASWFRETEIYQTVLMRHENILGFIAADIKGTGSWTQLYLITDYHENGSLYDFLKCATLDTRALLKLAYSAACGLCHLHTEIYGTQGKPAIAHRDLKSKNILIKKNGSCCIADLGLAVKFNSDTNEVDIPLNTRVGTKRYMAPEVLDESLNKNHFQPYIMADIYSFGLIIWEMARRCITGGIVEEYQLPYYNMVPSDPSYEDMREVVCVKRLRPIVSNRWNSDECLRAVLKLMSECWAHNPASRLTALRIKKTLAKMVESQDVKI

`c1cc(-c2cnn3cc(-c4ccc(OCCN5CCCCC5)cc4)cnc23)ccn1` was tested, and the pIC50 [1] was 6.65, the pIC50 [2] was 7.71 and the pIC50 [3] was 5.51. It also gave a pIC50 [4] of 5.11.

`CC(C)Oc1ccc(-c2cnc3c(-c4ccnc5ccccc45)cnn3c2)cc1` [4-(6-(4-isopropoxyphenyl)pyrazolo[1,5-a]pyrimidin-3-yl)quinoline] showed a pIC50 [5] of 7.90, a pIC50 [1] of 6.62 and a pIC50 [2] of 7.11. For the same compound, the pIC50 [3] was 4.96 and the pIC50 [4] was 5.22.

Work on `COc1cc(-c2cc(-c3cccc(O)c3)cnc2N)cc(OC)c1OC` [K02288a] yielded a pIC50 [1] of 7.59 and a pIC50 [2] of 8.44.

`c1cc(-c2cnn3cc(-c4ccc(N5CCNCC5)cc4)cnc23)c2cccnc2c1` [LDN-212854] was tested, and the pIC50 [1] was 7.07, the pIC50 [2] was 8.62 and the pIC50 [3] was 5.67. The pIC50 [4] was 5.03.

`c1ccc2c(-c3cnn4cc(-c5ccc(N6CCNCC6)cc5)cnc34)ccnc2c1` [LDN-193189] showed a pIC50 [1] of 7.84, a pIC50 [2] of 8.83 and a pIC50 [4] of 6.93.
